Source: patent US20070049564A1 (Wyeth, priority 2005, published 2007)
Converted amounts (≈) assume the structure as drawn. Where two headings read alike, the source gives them in different places.

Columns and labels:
E. coli GC 6465 = experiment: MIC, broth microdilution; conditions: Escherichia coli, GC6465, E. coli GC 6465
S. aureus GC 1079 = experiment: MIC, broth microdilution; conditions: Staphylococcus aureus, GC1079, S. aureus GC 1079
E. faecalis GC 2265 = experiment: MIC, broth microdilution; conditions: Enterococcus faecalis, GC2265, E. faecalis GC 2265
S. epidermidis GC 4935 = experiment: MIC, broth microdilution; conditions: Staphylococcus epidermidis, GC4935, S. epidermidis GC 4935
E. coli GC 2272 = experiment: MIC, broth microdilution; conditions: Escherichia coli, GC2272, E. coli GC 2272
S. pyogenes GC 4563 = experiment: MIC, broth microdilution; conditions: Streptococcus pyogenes, GC4563, S. pyogenes GC 4563
Protocol: Antimicrobial susceptibility testing. The in vitro activities of the antibiotics are determined by the broth microdilution method as recommended by the National Committee for Clinical Laboratory Standards (NCCLS) (1). Mueller-Hinton II broth (MHBII)(BBL Cockeysville, Md.) is the medium employed in the testing procedures. Microtiter plates containing serial dilutions of each antimicrobial agent are inoculated with each organism to yield the appropriate density (10^5 CFU/ml) in a 100 μl final volume. The plates are incubated for 18-22 hours at 35° C. in ambient air. […] Standard Pharmacological Test Procedures
Presented in Tables I-XIII are representative compounds of Formula I which were evaluated against a panel of 40 selected gram-positive and gram-negative bacteria strains by pre-incubation in water, mouse serum or human serum. Representative compounds were first incubated in mouse serum for an hour prior to the in vitro testing against a panel of selected gram-positive and gram-negative bacteria strains. All compounds were also pre-incubated in water for an hour prior to testing as control. Representative compounds of Formula I were incubated in human serum prior to MIC determination.

S. aureus GC 1131 = experiment: MIC, broth microdilution; conditions: Staphylococcus aureus, GC1131, S. aureus GC 1131
E. faecium GC 2243 = experiment: MIC, broth microdilution; conditions: Enterococcus faecium, GC2243, E. faecium GC 2243
S. pneumoniae+ GC 4465 = experiment: MIC, broth microdilution; conditions: Streptococcus pneumoniae, S. pneumoniae+ GC 4465
Protocol: (§1) Antimicrobial susceptibility testing. The in vitro activities of the antibiotics are determined by the broth microdilution method as recommended by the National Committee for Clinical Laboratory Standards (NCCLS) (1). Mueller-Hinton II broth (MHBII)(BBL Cockeysville, Md.) is the medium employed in the testing procedures. Microtiter plates containing serial dilutions of each antimicrobial agent are inoculated with each organism to yield the appropriate density (10^5 CFU/ml) in a 100 μl final volume. The plates are incubated for 18-22 hours at 35° C. in ambient air.
(§2) Representative compounds were first incubated in mouse serum for an hour prior to the in vitro testing against a panel of selected gram-positive and gram-negative bacteria strains. All compounds were also pre-incubated in water for an hour prior to testing as control.

S. aureus GC 6469 = experiment: MIC, broth microdilution; conditions: Staphylococcus aureus, GC6469, S. aureus GC 6469
Protocol: as §1, §2

S. aureus GC 6466 = experiment: MIC, broth microdilution; conditions: Staphylococcus aureus, GC6466, S. aureus GC 6466
E. coli GC 1073 = experiment: MIC, broth microdilution; conditions: Escherichia coli, GC1073, E. coli GC 1073
Protocol: as §1
Representative compounds were first incubated in mouse serum for an hour prior to the in vitro testing against a panel of selected gram-positive and gram-negative bacteria strains. All compounds were also pre-incubated in water for an hour prior to testing as control. Representative compounds of Formula I were incubated in human serum prior to MIC determination.

S. aureus GC 4536 = experiment: MIC, broth microdilution; conditions: Staphylococcus aureus, GC4536, S. aureus GC 4536
E. coli GC 2233 = experiment: MIC, broth microdilution; conditions: Escherichia coli, GC2233, E. coli GC 2233
E. coli GC 2234 = experiment: MIC, broth microdilution; conditions: Escherichia coli, GC2234, E. coli GC 2234
E. coli = experiment: Range of MIC for E. coli strains; conditions: Escherichia coli
E. coli GC 2236 = experiment: MIC, broth microdilution; conditions: Escherichia coli, GC2236, E. coli GC 2236
Staph. = experiment: Range of MIC for Staph. strains, including MRSA; conditions: Staphylococcus aureus, MRSA
c. albicans GC 3066 = experiment: MIC, broth microdilution
E. faecalis GC 4555 = experiment: MIC, broth microdilution; conditions: Enterococcus faecalis, GC4555, E. faecalis GC 4555

Compound `CCCN(CC(=O)Nc1cc(N(C)C)c2c(c1O)C(=O)C1=C(O)[C@]3(O)C(=O)C(C(N)=O)=C(O)[C@@H](N(C)C)[C@@H]3C[C@@H]1C2)C(=O)OCOC(=O)C(C)(C)C` [Example 9, ({[(2-{[(5aR,6aS,7S,10aS)-9-(aminocarbonyl)-4,7-bis(dimethylamino)-1,8,10a,11-tetrahydroxy-10,12-dioxo-5,5a,6,6a,7,10,10a,12-octahydrotetracen-2-yl]amino}-2-oxoethyl)(propyl)amino]carbonyl}oxy)methyl pivalate] has an MIC (E. coli GC 6465; Mouse Serum pre-incubation) of 4 µg/mL (≈ 5.48 µM), an MIC (E. coli GC 6465; Water pre-incubation) of over 64 µg/mL and an MIC (S. aureus GC 1079; Mouse Serum pre-incubation) of 2 µg/mL (≈ 2.74 µM). It also gave an MIC (S. aureus GC 1079; Water pre-incubation) of 1 µg/mL (≈ 1.37 µM), an MIC (E. faecalis GC 2265; Mouse Serum pre-incubation) of 1 µg/mL (≈ 1.37 µM) and an MIC (E. faecalis GC 2265; Water pre-incubation) of 2 µg/mL (≈ 2.74 µM). It also gave an MIC (S. epidermidis GC 4935; Mouse Serum pre-incubation) of 0.25 µg/mL (≈ 0.343 µM), an MIC (S. epidermidis GC 4935; Water pre-incubation) of 1 µg/mL (≈ 1.37 µM) and an MIC (E. coli GC 2272; Mouse Serum pre-incubation) of 0.5 µg/mL (≈ 0.685 µM). It also gave an MIC (E. coli GC 2272; Water pre-incubation) of 8 µg/mL (≈ 11 µM), an MIC (S. pyogenes GC 4563; Mouse Serum pre-incubation) of under 0.06 µg/mL and an MIC (S. pyogenes GC 4563; Water pre-incubation) of under 0.06 µg/mL. It also gave an MIC (S. aureus GC 1131; Mouse Serum pre-incubation) of under 0.06 µg/mL, an MIC (S. aureus GC 1131; Water pre-incubation) of 0.25 µg/mL (≈ 0.343 µM) and an MIC (E. faecium GC 2243; Mouse Serum pre-incubation) of 0.25 µg/mL (≈ 0.343 µM). For the same compound, the MIC (E. faecium GC 2243; Water pre-incubation) was 0.5 µg/mL (≈ 0.685 µM), the MIC (S. pneumoniae+ GC 4465; Mouse Serum pre-incubation) was 2 µg/mL (≈ 2.74 µM) and the MIC (S. pneumoniae+ GC 4465; Water pre-incubation) was 2 µg/mL (≈ 2.74 µM). The MIC (S. aureus GC 6469; Mouse Serum pre-incubation) was 1 µg/mL (≈ 1.37 µM), the MIC (S. aureus GC 6469; Water pre-incubation) was 2 µg/mL (≈ 2.74 µM) and the MIC (S. aureus GC 6466; Mouse Serum pre-incubation) was 0.12 µg/mL (≈ 0.164 µM). For the same compound, the MIC (S. aureus GC 6466; Water pre-incubation) was 0.12 µg/mL (≈ 0.164 µM), the MIC (E. coli GC 1073; Mouse Serum pre-incubation) was 1 µg/mL (≈ 1.37 µM) and the MIC (E. coli GC 1073; Water pre-incubation) was 8 µg/mL (≈ 11 µM). The MIC (S. aureus GC 4536; Mouse Serum pre-incubation) was 0.5 µg/mL (≈ 0.685 µM), the MIC (S. aureus GC 4536; Water pre-incubation) was 0.5 µg/mL (≈ 0.685 µM) and the MIC (E. coli GC 2233; Mouse Serum pre-incubation) was 0.5 µg/mL (≈ 0.685 µM). It also gave an MIC (E. coli GC 2233; Water pre-incubation) of 4 µg/mL (≈ 5.48 µM), an MIC (E. coli GC 2234; Mouse Serum pre-incubation) of 0.5 µg/mL (≈ 0.685 µM) and an MIC (E. coli GC 2234; Water pre-incubation) of 8 µg/mL (≈ 11 µM). It also gave an MIC (E. coli; 20 h, read-out: Range of MIC, E. coli (Mouse Serum)) of 0.5 to 2 µg/mL (≈ 0.685 to 2.74 µM), an MIC (E. coli; read-out: Range of MIC, E. coli (Water)) of 4 to 64 µg/mL (≈ 5.48 to 87.7 µM) and an MIC (E. coli; read-out: Range of MIC, E. coli (mouse serum)) of 0.5 to 2 µg/mL (≈ 0.685 to 2.74 µM). It also gave an MIC (E. coli; read-out: Range of MIC, E. coli (water)) of 4 to 64 µg/mL (≈ 5.48 to 87.7 µM), an MIC (E. coli GC 2236; Mouse Serum pre-incubation) of 1 µg/mL (≈ 1.37 µM) and an MIC (E. coli GC 2236; Water pre-incubation) of 8 µg/mL (≈ 11 µM). The MIC (Staph.; read-out: Range of MIC, Staph (Mouse Serum)) was 0.06 to 2 µg/mL (≈ 0.0822 to 2.74 µM), the MIC (Staph.; read-out: Range of MIC, Staph (Water)) was 0.12 to 2 µg/mL (≈ 0.164 to 2.74 µM) and the MIC (Staph.; read-out: Range of MIC, Staph. (mouse serum)) was 0.06 to 1 µg/mL (≈ 0.0822 to 1.37 µM). For the same compound, the MIC (Staph.; read-out: Range of MIC, Staph. (water)) was 0.12 to 2 µg/mL (≈ 0.164 to 2.74 µM), the MIC (c. albicans GC 3066; Candida albicans, GC3066) was over 64 µg/mL and the MIC (c. albicans GC 3066; c. albicans GC 3066, Water pre-incubation) was over 64 UG/ML. It also gave an MIC (E. faecalis GC 4555; Mouse Serum pre-incubation) of 0.5 µg/mL (≈ 0.685 µM) and an MIC (E. faecalis GC 4555; Water pre-incubation) of 2 µg/mL (≈ 2.74 µM).
